Laboratory results reported in paper PMC1470342 (Environmental Health Perspectives, 1997).

Key:
ovariectomized CD-1 mice [1] = test: Vaginal cell cornification assay; type: in vivo, mouse; conditions: 202, 16 and 1.7 mg/kg
ovariectomized CD-1 mice [2] = test: Mouse uterotrophic assay; type: in vivo; conditions: 202 mg/kg, p < 0.0002
MCF-7 cells = test: GC-MS analysis of media from PCB 104-treated transfected MCF-7 cells; conditions: MCF-7 cells incubated with PCB 104 for 8, 24, 48 hr; SIM GC-MS
[3] = target: T1, Gal4-human ER chimera (Gal4-HEGO) (Homo sapiens, UniProt P03372); test: Recombinant receptor/reporter gene assay; type: cell-based
T1 sequence (P03372 311-547 limits assumed): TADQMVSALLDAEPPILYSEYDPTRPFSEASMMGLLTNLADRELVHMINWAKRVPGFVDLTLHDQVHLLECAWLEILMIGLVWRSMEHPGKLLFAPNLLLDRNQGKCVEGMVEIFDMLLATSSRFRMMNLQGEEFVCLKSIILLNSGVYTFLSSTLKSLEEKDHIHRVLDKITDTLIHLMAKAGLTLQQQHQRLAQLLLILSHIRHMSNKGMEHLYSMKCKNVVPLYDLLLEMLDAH

[4] = co-treatment 1 nM E2 plus 0.1, 1, 10 pM (printed)

Clc1cc(Cl)c(-c2c(Cl)cccc2Cl)c(Cl)c1 [PCB 104, 2,4,6,2',6'-pentachlorobiphenyl]
vaginal cell cornification, dose response (ovariectomized CD-1 mice [1]): induced vaginal epithelial cell cornification
uterine wet weight versus vehicle control (ovariectomized CD-1 mice [2]): increased uterine wet weight
presence of metabolite HO-PCB 104 or hydroxylated isomers in media extracts (MCF-7 cells): failed to detect
effect on E2-induced luciferase activity compared to E2 alone [3, 4]: no effect

Clc1cc(Cl)c(-c2c(Cl)cc(Cl)cc2Cl)c(Cl)c1 [PCB 155, 2,4,6,2',4',6'-hexachlorobiphenyl]
estrogenic activity in reporter gene assay ([3]; alone, 24 hr): minimal
effect on E2-induced luciferase activity compared to E2 alone [3, 4]: significant antiestrogenic activity

Oc1cc(Cl)c(-c2c(Cl)cc(Cl)cc2Cl)c(Cl)c1 [HO-PCB 104, 2,4,6,2',6'-pentachloro-4-biphenylol]
effect on E2-induced luciferase activity compared to E2 alone ([3]; co-treatment 1 nM E2 plus 10 pM (printed; 10 microM in abstract)): additivity
